# Experimental data from the supplement of paper PMC10307832.
# Legend:
# Experiment in all cases: relative viability (nuclei count vs DMSO), 5 days (fraction); higher = more cells survive
# 201T = test system: 201T
# Outline: (§1)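 For relative viability, nuclei counts in treated wells were divided by those in vehicle wells. Lung cancer cell lines had been pin-tool dosed in 1536-well plates the day after seeding and cultured for 5 days, then fixed and stained in one step (final 0.05% Triton X-100, 1% formaldehyde, 1 ug/ml Hoechst) and imaged at 4×. Doses were one drug alone or a fixed anchor-drug dose plus five library-drug doses (not always all listed) in √10 steps, and values are duplicate-plate medians.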
# ABC-1 = test system: ABC-1
# Outline: as §1
# BEN = test system: BEN
# Outline: as §1
# CAL-12T = test system: CAL-12T
# Outline: as §1
# COR-L 105 = test system: COR-L 105
# Outline: as §1
# COR-L23 = test system: COR-L23
# Outline: as §1
# EKVX = test system: EKVX
# Outline: as §1
# HARA = test system: HARA
# Outline: as §1
# HCC-366 = test system: HCC-366
# Outline: as §1
# LK-2 = test system: LK-2
# Outline: as §1
# LU99A = test system: LU99A
# Outline: as §1
# NCI-H1437 = test system: NCI-H1437
# Outline: as §1
# NCI-H1650 = test system: NCI-H1650
# Outline: as §1
# NCI-H1666 = test system: NCI-H1666
# Outline: as §1
# NCI-H2009 = test system: NCI-H2009
# Outline: as §1
# NCI-H2023 = test system: NCI-H2023
# Outline: as §1
# NCI-H2170 = test system: NCI-H2170
# Outline: as §1
# NCI-H3122 = test system: NCI-H3122
# Outline: as §1
# NCI-H441 = test system: NCI-H441
# Outline: as §1
# NCI-H661 = test system: NCI-H661
# Outline: as §1
# NCI-H727 = test system: NCI-H727
# Outline: as §1
# NCI-H838 = test system: NCI-H838
# Outline: as §1
# PC-14 = test system: PC-14
# Outline: as §1
# SW 900 = test system: SW 900
# Outline: as §1
smiles,measurement,setting,value
Clc1ccc(Nc2nnc(Cc3ccncc3)c3ccccc23)cc1 [Vatalanib] + COc1cccc2cc(-c3nc([C@H]4CC[C@H](C(=O)O)CC4)n4ncnc(N)c34)[nH]c12 [OSI-027] (partner 0.5 µM),relative viability,201T; first compound 0.04 µM,0.759
same,relative viability,201T; first compound 0.1265 µM,0.698
same,relative viability,201T; first compound 0.4 µM,0.889
same,relative viability,201T; first compound 1.265 µM,0.657
same,relative viability,201T; first compound 4 µM,0.666
same,relative viability,ABC-1; first compound 0.04 µM,0.444
same,relative viability,ABC-1; first compound 0.1265 µM,0.512
same,relative viability,ABC-1; first compound 1.265 µM,0.381
same,relative viability,ABC-1; first compound 4 µM,0.486
same,relative viability,BEN; first compound 0.04 µM,0.297
same,relative viability,BEN; first compound 0.1265 µM,0.314
same,relative viability,BEN; first compound 0.4 µM,0.31
same,relative viability,BEN; first compound 1.265 µM,0.295
same,relative viability,BEN; first compound 4 µM,0.281
same,relative viability,CAL-12T; first compound 0.04 µM,0.574
same,relative viability,CAL-12T; first compound 0.1265 µM,0.523
same,relative viability,CAL-12T; first compound 0.4 µM,0.583
same,relative viability,CAL-12T; first compound 1.265 µM,0.556
same,relative viability,CAL-12T; first compound 4 µM,0.581
same,relative viability,COR-L 105; first compound 0.04 µM,0.694
same,relative viability,COR-L 105; first compound 0.1265 µM,0.59
same,relative viability,COR-L 105; first compound 0.4 µM,0.721
same,relative viability,COR-L 105; first compound 1.265 µM,0.721
same,relative viability,COR-L 105; first compound 4 µM,0.561
same,relative viability,COR-L23; first compound 0.04 µM,0.814
same,relative viability,COR-L23; first compound 0.1265 µM,0.765
same,relative viability,COR-L23; first compound 0.4 µM,0.891
same,relative viability,COR-L23; first compound 1.265 µM,0.709
same,relative viability,COR-L23; first compound 4 µM,0.722
same,relative viability,EKVX; first compound 0.04 µM,0.743
same,relative viability,EKVX; first compound 0.1265 µM,0.663
same,relative viability,EKVX; first compound 0.4 µM,0.663
same,relative viability,EKVX; first compound 4 µM,0.643
same,relative viability,HARA; first compound 0.04 µM,0.506
same,relative viability,HARA; first compound 0.1265 µM,0.595
same,relative viability,HARA; first compound 0.4 µM,0.71
same,relative viability,HARA; first compound 1.265 µM,0.492
same,relative viability,HARA; first compound 4 µM,0.422
same,relative viability,HCC-366; first compound 0.04 µM,1.18
same,relative viability,HCC-366; first compound 0.1265 µM,0.846
same,relative viability,HCC-366; first compound 0.4 µM,1.13
same,relative viability,HCC-366; first compound 1.265 µM,0.736
same,relative viability,HCC-366; first compound 4 µM,0.548
same,relative viability,LK-2; first compound 0.04 µM,0.211
same,relative viability,LK-2; first compound 0.1265 µM,0.208
same,relative viability,LK-2; first compound 0.4 µM,0.214
same,relative viability,LK-2; first compound 1.265 µM,0.196
same,relative viability,LK-2; first compound 4 µM,0.198
same,relative viability,LU99A; first compound 0.04 µM,0.262
same,relative viability,LU99A; first compound 0.1265 µM,0.282
same,relative viability,LU99A; first compound 0.4 µM,0.358
same,relative viability,LU99A; first compound 1.265 µM,0.307
same,relative viability,LU99A; first compound 4 µM,0.277
same,relative viability,NCI-H1437; first compound 0.04 µM,0.942
same,relative viability,NCI-H1437; first compound 0.1265 µM,0.949
same,relative viability,NCI-H1437; first compound 0.4 µM,0.937
same,relative viability,NCI-H1437; first compound 1.265 µM,0.792
same,relative viability,NCI-H1437; first compound 4 µM,0.879
same,relative viability,NCI-H1650; first compound 0.04 µM,0.769
same,relative viability,NCI-H1650; first compound 0.1265 µM,0.454
same,relative viability,NCI-H1650; first compound 0.4 µM,0.438
same,relative viability,NCI-H1650; first compound 1.265 µM,0.633
same,relative viability,NCI-H1650; first compound 4 µM,0.514
same,relative viability,NCI-H1666; first compound 0.04 µM,0.852
same,relative viability,NCI-H1666; first compound 0.1265 µM,0.815
same,relative viability,NCI-H1666; first compound 0.4 µM,0.883
same,relative viability,NCI-H1666; first compound 1.265 µM,0.802
same,relative viability,NCI-H1666; first compound 4 µM,0.82
same,relative viability,NCI-H2009; first compound 0.04 µM,0.73
same,relative viability,NCI-H2009; first compound 0.1265 µM,0.561
same,relative viability,NCI-H2009; first compound 0.4 µM,0.647
same,relative viability,NCI-H2009; first compound 1.265 µM,0.58
same,relative viability,NCI-H2009; first compound 4 µM,0.626
same,relative viability,NCI-H2023; first compound 0.04 µM,0.376
same,relative viability,NCI-H2023; first compound 0.1265 µM,0.366
same,relative viability,NCI-H2023; first compound 0.4 µM,0.419
same,relative viability,NCI-H2023; first compound 1.265 µM,0.342
same,relative viability,NCI-H2023; first compound 4 µM,0.343
same,relative viability,NCI-H2170; first compound 0.04 µM,0.707
same,relative viability,NCI-H2170; first compound 0.1265 µM,0.743
same,relative viability,NCI-H2170; first compound 0.4 µM,0.782
same,relative viability,NCI-H2170; first compound 1.265 µM,0.63
same,relative viability,NCI-H2170; first compound 4 µM,0.769
same,relative viability,NCI-H3122; first compound 0.04 µM,1.13
same,relative viability,NCI-H3122; first compound 0.1265 µM,0.982
same,relative viability,NCI-H3122; first compound 1.265 µM,0.934
same,relative viability,NCI-H3122; first compound 4 µM,0.848
same,relative viability,NCI-H441; first compound 0.04 µM,0.581
same,relative viability,NCI-H441; first compound 0.1265 µM,0.504
same,relative viability,NCI-H441; first compound 0.4 µM,0.597
same,relative viability,NCI-H441; first compound 1.265 µM,0.658
same,relative viability,NCI-H441; first compound 4 µM,0.713
same,relative viability,NCI-H661; first compound 0.04 µM,0.737
same,relative viability,NCI-H661; first compound 0.1265 µM,0.699
same,relative viability,NCI-H661; first compound 0.4 µM,0.709
same,relative viability,NCI-H661; first compound 1.265 µM,0.717
same,relative viability,NCI-H661; first compound 4 µM,0.67
same,relative viability,NCI-H727; first compound 0.04 µM,0.562
same,relative viability,NCI-H727; first compound 0.1265 µM,0.545
same,relative viability,NCI-H727; first compound 0.4 µM,0.653
same,relative viability,NCI-H727; first compound 1.265 µM,0.562
same,relative viability,NCI-H727; first compound 4 µM,0.45
same,relative viability,NCI-H838; first compound 0.04 µM,0.428
same,relative viability,NCI-H838; first compound 0.1265 µM,0.384
same,relative viability,NCI-H838; first compound 0.4 µM,0.379
same,relative viability,NCI-H838; first compound 1.265 µM,0.404
same,relative viability,NCI-H838; first compound 4 µM,0.443
same,relative viability,PC-14; first compound 0.04 µM,1.05
same,relative viability,PC-14; first compound 0.1265 µM,0.782
same,relative viability,PC-14; first compound 0.4 µM,0.844
same,relative viability,PC-14; first compound 1.265 µM,0.672
same,relative viability,PC-14; first compound 4 µM,0.849
same,relative viability,SW 900; first compound 0.1265 µM,0.531
same,relative viability,SW 900; first compound 0.4 µM,0.565
same,relative viability,SW 900; first compound 1.265 µM,0.618
same,relative viability,SW 900; first compound 4 µM,0.501
